Test results published in US8883752B2, “5′ and 2′ BIS-substituted nucleosides and oligomeric compounds prepared therefrom” (Isis Pharmaceuticals, Inc., priority 2008, dated 2014).
Oligonucleotides are written 5' to 3', each unit as a sugar letter and its base; * is a phosphorothioate linkage, no mark a phosphodiester; rarer units and linkages stand in square brackets, end groups in braces. Plain capitals give the bases only. [DMAEAc-N] = 2'-O-dimethylaminoethyl acetamide sugar (N: the base); [5'R-Me-N] = (R)-5'-methyl-2'-deoxyribonucleoside (N: the base); {Py} = methylenephosphonate group, PO(OH)2CH2-; e = 2'-O-(2-methoxyethyl) (MOE); [5mC] = 5-methylcytosine; d = 2'-deoxy (DNA); m = 2'-O-methyl; {P} = phosphate; f = 2'-fluoro

Legend:
[1] = Modified ssRNA 5′-phosphate serum stability assay; type: in vitro ADME; conditions: 10 μM in 95% fresh mouse serum, 37° C., 0-24 h, LC/MS
Text: A serum stability assay is useful for evaluating the stability of oligomeric compounds in the presences of nucleases and other enzymes found in serum. For example, the stability of a 5′-terminal phosphate group of an oligomeric compound can be evaluated by assessing the ability of the 5′-terminal phosphate group to remain attached to the oligomeric compound in the presence of serum. Accordingly, a serum stability assay was employed to evaluate the stability of modified ssRNAs having a 5′-terminal phosphate group.
Various modified ssRNAs, shown below, having a 5′-terminal phosphate group (10 μM) were dissolved in 95% of fresh mouse serum and incubated at 37° C. Aliquots of serum (100 μL) were removed after 0, 1, 3, 6 or 24 hours of incubation times. The serum samples were immediately quenched and snap frozen. The samples were extracted by the strong anion exchange (SAX) and octadecylsilyl (C-18) columns. For each incubation time, the amount of full length modified ssRNA having a 5′-terminal phosphate group was determined by LC/MS, and the half-life of the full length modified ssRNA having a 5′ terminal phosphate group was calculated. The results are expressed as half-time (T1/2) in the table below.

PTEN mRNA = PTEN mRNA levels in liver of Balb/c mice after single i.p. injection (Example 65); type: in vivo, mouse; conditions: 48 h; for Inhibition of PTEN in vivo (in words): 75 mg/kg; for % inhibition of PTEN mRNA expression: liver, single i.p. 75 mg/kg, normalized to saline-injected control
Experimental: In accordance with the present disclosure, oligomeric compounds were synthesized and tested for their ability to reduce PTEN expression in vivo at dose of 75 mg/kg. Six week old male Balb/c mice (Jackson Laboratory, Bar Harbor, Me.) were administered a single intraperitoneal (i.p) injection at 75 mg/kg of ISIS 467074 having a 5′-phosphate group and […] having a 5′-methylenephosphonate group, (PO(OH)2CH2—). A 5-10-5 gapped oligomer, ISIS 116847 having 2′-O-MOE modified nucleosides in wings with a 5′-phosphorothioate group was included for comparison.
Each dose group consisted of four animals. The mice were sacrificed 48 hours following the final administration to determine the PTEN mRNA levels in liver using real-time PCR and RIBOGREEN® RNA quantification reagent (Molecular Probes, Inc. Eugene, Oreg.) according to standard protocols. PTEN mRNA levels were determined relative to total RNA (using Ribogreen), prior to normalization to saline-treated control. Results are listed below as the average % inhibition of PTEN mRNA expression for each treatment group, normalized to saline-injected control.

[2] = In vivo stability: tissue level of intact compound (Example 66); parameters: species or system mouse; conditions: Balb/c mice
Experimental: […] were homogenized in a homogenation buffer (20 mM Tris, pH 8, 20 mM EDTA and 0.1 M NaCl in 0.5% NP-40) at time points 0, 5, 10, 20, 30, 40 and 60 minutes (Exception: 06/408877 at time points 0, 15, 30, 60, 120 and 240 mins, 06/409044, at time points 0, 0.5, 1, 2, 4, 8, and 18 hours). An internal standard (18/355868, a 27-mer, 2′-O-methoxyethyl-modified phosphorothioate oligonucleotide, or 19/116847, a 5-10-5 gapmer, 2′-O-methoxyethyl-modified phosphorothioate oligonucleotide) with concentration at 20 μg/g was added prior to extraction. Tissue samples were extracted with 70 μL of NH4OH and 240 μL of phenol/chloroform/isoamyl alcohol (25:24:1). The supernatant was removed after centrifugation at 14000 rpm for […]. The remaining extractant was vortexed with an additional 500 μL of water and the aqueous layer was removed and combined with the supernatant after centrifugation at 14000 rpm for 2 minutes.
Triethylammonium acetate solution at 1M (500 μL) was added to the supernatant. The aqueous layer of the mixture was loaded onto the pre-conditioned Biotage™ Phenyl Solid Phase Extraction Plate (SPE plate) after centrifugation at 9000 rpm for 20 minutes. The SPE plate was washed several times with water. The sample was then eluted with 1.5 mL of 1% TEA in 90% MeOH and filtered through the Protein Precipitation Plate (Phenomenex™). The elutent was evaporated to dryness and diluted to 200 μL with 50% quenching buffer (8 M urea, 50 mM EDTA) and water before sample injection.
An Agilent 1100 Series LC/MSD system was connected in-line to a mass spectrometry. Mass spectrometer was operated in the electrospray negative ionization mode. The nebulizer nitrogen gas was set at […] and the drying nitrogen gas was set at 12 L/min. The drying temperature was 325° C. Samples (25 μL/well) were introduced via an auto sampler and reversed-phase chromatography was carried out with an)(Bridge OST C18 2.5 μm 2.1 mm×50 mm HPLC column using a flow rate of 300 μL/min at 55° C. The ion pair buffers consisted of A: 5 mM tributylammonium acetate (TBAA) in 20% acetonitrile and B: […] TBAA in 90% acetonitrile and the loading buffer was 25 mM TBAA in 25% Acetonitrile. Separation was performed on a 30% to 70% B in 9 min and then 80% B in 11 min gradient.
Quantitative analysis of oligonucleotide and internal standard by extracted ion chromatograms of the most abundant ions was performed using MSD ChemStation software.
The in vivo stability of the three oligomeric compounds in Example 65 was evaluated. The tissue samples were obtained from the animals in which PTEN was assessed. Tissue samples were collected and prepared using the same technique described in Example 64. Quantitative analysis of the oligonucleotides standard were performed by extracted ion chromatograms in the most abundant charge state (−4) using Chemstation software. The tissue level (μg/g) of intact compound of ISIS 116847, 467074 and 467076 was measured and are provided below.

Substance	T1/2 (h) of full length modified ssRNA having a 5′-terminal phosphate group [1] [h]	Inhibition of PTEN in vivo (in words) (PTEN mRNA)	% inhibition of PTEN mRNA expression (PTEN mRNA) [%]	Level of intact compound in tissue (in words) ([2]; 75 mg/kg, 48 h)	Compound lacking the 5′-phosphate in tissue ([2]; 75 mg/kg, 48 h)	Tissue Level of intact compound ([2]; 75 mg/kg i.p., 48 h time point, LC-MS) [µg/g]
ISIS 432356: modified ssRNA, SEQ ID NO 06: P-TRUfGfUfCfUfCfUfGfGfUfCfCfUfUfAfCfUfUfAeAe; R = (R)-5′-methyl-2′-deoxyribonucleoside (antisense {P}-[5'R-Me-T]fUfGfUfCfUfCfUfGfGfUfCfCfU*fU*fA*fC*fU*fU*eA*eA; single-stranded RNA for RNAi)	8.7	–	–	–	–	–
ISIS 467076: 5′-methylenephosphonate ssRNA, SEQ ID NO 05: Py-meUmUfGmUfCmUfCmUfGmGfUmCfCmUfUmAfCmUfUmAeAe (antisense {Py}-mT*fU*mGfU*mCfU*mCfU*mGfG*mUfC*mCfU*mU*fA*mC*fU*mU*eA*eA; further chemistry not fully specified)	–	smaller inhibition of PTEN	16	present at a lower concentration	–	–
ISIS 404320: modified ssRNA targeting PTEN, SEQ ID NO 05: P-UfUfGfUfCfUfCfUfGfGfUfCfCfUfUfAfCfUfUfAeAe (antisense {P}-fUfUfGfUfCfUfCfUfGfGfUfCfCfU*fU*fA*fC*fU*fU*eA*eA; single-stranded RNA for RNAi)	4	–	–	–	–	–
ISIS 467074: modified ssRNA, SEQ ID NO 06: P-TScUfGmUfCmUfCmUfGmGfUmCfCmUfUmAfCmUfUmAeAe (antisense TUGUCUCUGGUCCUUACUUAA; 5'-phosphate, modified sugars, 2'-F/2'-OMe, MOE, chemistry not fully specified)	–	lowest amount of PTEN reduction	11	not detected	lacking the 5′-phosphate was detected	–
ISIS 422391: modified ssRNA, SEQ ID NO 06: P-TdUfGfUfCfUfCfUfGfGfUfCfCfUfUfAfCfUfUfAeAe; d = 2′-O-DMAEAc (antisense {P}-[DMAEAc-T]fUfGfUfCfUfCfUfGfGfUfCfCfU*fU*fA*fC*fU*fU*eA*eA; single-stranded RNA for RNAi)	6.5	–	–	–	–	–
ISIS 116847: 5-10-5 gapped oligomer with 2′-O-MOE wings, included for comparison: meCeTeGemeCeTeAGmeCmeCTmeCTGGATeTeTeGeAe (e[5mC]*eT*eG*e[5mC]*eT*dA*dG*d[5mC]*d[5mC]*dT*d[5mC]*dT*dG*dG*dA*eT*eT*eT*eG*eA) [reference compound]	–	potent inhibitor of PTEN	76	present at high levels	–	131.1
ISIS 398701: modified ssRNA, SEQ ID NO 09: P-USfUfGfUfCfUfCfUfGfGfUfCfCfUfUfAfCfUfUf (antisense UUGUCUCUGGUCCUUACUU; 5'-phosphate, 2'-fluoro, phosphorothioate, chemistry not fully specified)	18.2	–	–	–	–	–
